Activity calls are given as the source filed them.
Experiments:
Cytochrome P450 2C19 = Cytochrome P450 2C19 (Homo sapiens, UniProt P33261); assay: Cytochrome panel assay with activity outcomes. Panel member name: p450-cyp2c19 Compounds with AC50 equal or less than 10 uM are considered active; format: functional; details: read-out: AC50
[1] = half-maximal inhibitory concentration for glucagon-like peptide-1 release, STC-1 cell line, dose-response (AID 1117345); format: functional, cell-based
[2] = Glucagon-like peptide 1 release potency, NCI-H716 cell line, dose-response, half-maximal inhibitory concentration (AID 1117344); format: functional, cell-based
Cytochrome P450 2D6 = Cytochrome P450 2D6 (Homo sapiens, UniProt P10635);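 note: CYP2D6 member of a cytochrome P450 panel assay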
Cytochrome P450 1A2 = target: T1, Cytochrome P450 1A2 (Homo sapiens, UniProt P05177);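 note: PubChem cytochrome P450 panel assay, CYP1A2 panel member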
T1 sequence (P05177 whole entry): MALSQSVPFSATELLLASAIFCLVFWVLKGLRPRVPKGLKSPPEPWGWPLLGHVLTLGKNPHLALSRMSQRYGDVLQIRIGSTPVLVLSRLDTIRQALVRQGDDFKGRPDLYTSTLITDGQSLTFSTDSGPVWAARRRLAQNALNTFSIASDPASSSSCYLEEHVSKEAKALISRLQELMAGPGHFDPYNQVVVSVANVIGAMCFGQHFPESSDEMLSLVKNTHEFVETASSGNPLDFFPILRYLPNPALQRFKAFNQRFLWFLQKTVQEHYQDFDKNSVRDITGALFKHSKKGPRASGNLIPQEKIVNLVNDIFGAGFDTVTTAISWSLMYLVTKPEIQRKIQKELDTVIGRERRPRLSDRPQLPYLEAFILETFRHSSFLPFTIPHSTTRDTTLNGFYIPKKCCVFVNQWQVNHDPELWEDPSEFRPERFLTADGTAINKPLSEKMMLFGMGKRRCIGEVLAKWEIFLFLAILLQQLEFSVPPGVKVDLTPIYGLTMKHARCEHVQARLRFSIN

HEK293 = assay: HEK293T cell cytotoxicity, dose response, cytotoxicity control, ATP luminescence, cherry-pick samples (AID 687005); format: functional, cell-based; details: Homo sapiens;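 note: cells exposed to compound for 48 hours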
[3] = HEK293 Cytotoxicity Assay Measured in Cell-Based System Using Plate Reader - 7071-01_Inhibitor_Dose_CherryPick_Activity_Set2.; format: functional
[4] = Dose-response inhibition of insulin secretion in a rat insulinoma line at 5 mM glucose (AID 1117331); format: functional, cell-based; details: INS-1E
H9c2 = assay: cells; format: functional, cell-based; details: Rattus norvegicus, H9c2, Myocardium;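 note: confirmatory concentration-response retest of ultra-high-throughput screening hits for modulation of myocardial damage; cell death induced by hydrogen peroxide oxidative stress; compound pretreatment for 60 min then peroxide exposure for 2 h; potency is for protecting the cells against peroxide damage rather than for killing them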
[5] = target: NAD-dependent protein deacylase sirtuin-5, mitochondrial (Homo sapiens, UniProt Q9NXA8); assay: SIRT5 desuccinylase inhibitors, dose response, biochemical, fluorescence imaging, cherry-pick, set 5 (AID 720591);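 note: desuccinylation of succinyl peptide AMC substrate read as fluorescence after trypsin release; potency of inhibitors that lower fluorescence and may act on trypsin instead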
[6] = P. falciparum 3D7-ScDHODH growth inhibitors, dose response, SYBR Green, dry powder samples (AID 1159570); format: functional, cell-based;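 note: parasite growth measured after 72 hours of compound exposure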
[7] = HepG2 cell cytotoxicity, dose response, cytotoxicity control, plate reader, dry powder samples (AID 1159569); format: functional, cell-based;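 note: inhibitor potency with signal falling toward the positive control level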
[8] = P. falciparum Dd2 growth inhibitors, dose response, SYBR Green, dry powder samples (AID 1159566); format: functional, cell-based;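 note: potency for growth inhibition with lower SYBR green DNA signal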
[9] = Plasmodium falciparum Dd2 Sybr green parasite growth Measured in Cell-Based and Microorganism Combination System Using Plate Reader - 2153-01_Inhibitor_Dose_DryPowder_Activity_Set3.; format: functional
[10] = P. falciparum ATP4 D1247Y mutant growth inhibitors, dose response, NITD609-resistant line, SYBR Green, dry powder (AID 1159571); format: functional, cell-based;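 note: parasites synchronized at ring stage by sorbitol before testing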
[11] = system: Streptococcus sp. 'group A'; assay: growth inhibition of control SK(-) GAS strain, dose response, counter-screen for streptokinase expression inhibitor project, luminescence, kanamycin, BacTiterGlo, confirmation (AID 1900); format: functional, organism-based
Streptokinase A = target: T2, Streptokinase A (Streptococcus pyogenes serotype M1, UniProt P10520); assay: S. pyogenes streptokinase expression inhibitors, potency, dose response, plasminogen activation absorbance, OD405 (AID 1914); format: functional, Streptococcus pyogenes M1 GAS;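 note: secreted streptokinase activity via plasminogen activation per viability signal from cell pellet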
T2 sequence (P10520 whole entry): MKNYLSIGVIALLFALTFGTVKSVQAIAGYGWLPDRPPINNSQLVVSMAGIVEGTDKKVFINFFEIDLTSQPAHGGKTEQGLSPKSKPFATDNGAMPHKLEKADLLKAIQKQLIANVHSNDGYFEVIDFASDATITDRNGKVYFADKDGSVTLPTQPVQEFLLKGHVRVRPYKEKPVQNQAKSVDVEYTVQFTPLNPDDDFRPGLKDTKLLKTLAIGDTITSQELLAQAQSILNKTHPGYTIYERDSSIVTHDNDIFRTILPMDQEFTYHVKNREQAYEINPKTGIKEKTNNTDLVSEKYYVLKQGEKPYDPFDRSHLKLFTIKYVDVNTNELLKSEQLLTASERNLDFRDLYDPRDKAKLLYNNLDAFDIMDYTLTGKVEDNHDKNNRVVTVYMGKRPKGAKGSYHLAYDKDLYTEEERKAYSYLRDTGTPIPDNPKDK

[12] = growth suppression of PTEN-null colon cells, dose response, cell-based, HCT116 PTEN knockout (AID 1047); format: functional;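 note: HCT116 colon tumor cells with PTEN knocked out; cells exposed to compound for 60 hours before readout; potency for loss of cell viability measured by luminescence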
[13] = growth suppression of beta-catenin-knockout colon cells, dose response, cell-based, HCT116, human colon tumor (AID 1045); format: functional;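 note: HCT116 colon tumor cells with beta catenin knocked out; cells exposed to compound for 60 hours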
Streptococcus = assay: Group A Streptococcus viability loss, dose response, counter-screen for streptokinase expression inhibitor project, luminescence, BacTiterGlo (AID 1915); format: functional, organism-based;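 note: potency for reduction of bacterial viability or growth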
[14] = Luminescence Cell-Based Dose Retest to Confirm Inhibitors of Cancer Stem Cells. [Related pubchem assays (depositor defined):AID2717, AID2721]; format: functional; details: Homo sapiens
INS1 = assay: beta cell apoptosis inhibitors, cytokine rescue, dose response, luminescence, retest (AID 449756); format: functional, cell-based; details: Rattus norvegicus;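 note: cell death triggered by IL-1 beta plus TNF-alpha plus IFN-gamma mixture; protective hits raise ATP signal compared with cytokine alone wells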
[15] = target: Disintegrin and metalloproteinase domain-containing protein 17 (Homo sapiens, UniProt P78536); assay: ADAM17 protease inhibitors, dose response, counter-screen for ADAM10 exosite inhibitor project, biochemical, quenched FRET substrate (AID 743253)
[16] = P. falciparum Dd2 growth inhibitors, dose response, SYBR Green, cherry-picked samples (AID 1159567); format: functional, cell-based
[17] = HepG2 cell cytotoxicity, dose response, cytotoxicity control, cherry-picked samples (AID 1159577); format: functional, cell-based

Chain of NAD-dependent protein deacylase sirtuin-5, mitochondrial (Q9NXA8 whole entry): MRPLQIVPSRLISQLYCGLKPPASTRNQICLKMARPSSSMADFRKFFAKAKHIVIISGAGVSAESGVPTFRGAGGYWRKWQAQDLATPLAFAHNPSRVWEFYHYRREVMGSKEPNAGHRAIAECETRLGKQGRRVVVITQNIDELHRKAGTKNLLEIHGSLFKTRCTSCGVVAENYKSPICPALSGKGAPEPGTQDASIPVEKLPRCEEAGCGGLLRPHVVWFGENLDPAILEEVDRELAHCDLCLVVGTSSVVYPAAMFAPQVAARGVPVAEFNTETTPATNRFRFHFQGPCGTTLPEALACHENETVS
Chain of Disintegrin and metalloproteinase domain-containing protein 17 (P78536 whole entry, the tested form may be a part): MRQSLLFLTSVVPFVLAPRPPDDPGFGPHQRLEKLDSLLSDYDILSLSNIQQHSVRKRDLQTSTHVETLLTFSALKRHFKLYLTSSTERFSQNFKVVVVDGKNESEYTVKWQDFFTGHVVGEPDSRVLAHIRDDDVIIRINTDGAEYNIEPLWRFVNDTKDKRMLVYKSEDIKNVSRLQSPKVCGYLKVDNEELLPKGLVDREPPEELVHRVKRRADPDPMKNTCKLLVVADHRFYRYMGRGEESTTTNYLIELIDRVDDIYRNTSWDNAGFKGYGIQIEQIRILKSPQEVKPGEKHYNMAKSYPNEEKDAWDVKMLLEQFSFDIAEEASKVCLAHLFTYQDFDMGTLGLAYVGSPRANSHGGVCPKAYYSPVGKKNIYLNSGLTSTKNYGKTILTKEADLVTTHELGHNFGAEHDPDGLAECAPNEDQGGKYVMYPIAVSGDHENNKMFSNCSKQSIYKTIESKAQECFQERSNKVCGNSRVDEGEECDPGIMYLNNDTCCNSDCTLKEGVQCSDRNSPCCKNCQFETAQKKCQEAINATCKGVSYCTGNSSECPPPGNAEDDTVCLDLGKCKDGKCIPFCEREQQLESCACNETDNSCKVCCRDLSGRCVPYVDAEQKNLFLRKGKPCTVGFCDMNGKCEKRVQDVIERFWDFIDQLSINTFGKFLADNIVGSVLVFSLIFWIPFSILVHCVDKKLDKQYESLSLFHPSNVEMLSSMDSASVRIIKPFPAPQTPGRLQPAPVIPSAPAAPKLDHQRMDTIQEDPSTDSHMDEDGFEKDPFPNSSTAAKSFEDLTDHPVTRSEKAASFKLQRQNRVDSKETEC
Chain of Cytochrome P450 2C19 (P33261 whole entry): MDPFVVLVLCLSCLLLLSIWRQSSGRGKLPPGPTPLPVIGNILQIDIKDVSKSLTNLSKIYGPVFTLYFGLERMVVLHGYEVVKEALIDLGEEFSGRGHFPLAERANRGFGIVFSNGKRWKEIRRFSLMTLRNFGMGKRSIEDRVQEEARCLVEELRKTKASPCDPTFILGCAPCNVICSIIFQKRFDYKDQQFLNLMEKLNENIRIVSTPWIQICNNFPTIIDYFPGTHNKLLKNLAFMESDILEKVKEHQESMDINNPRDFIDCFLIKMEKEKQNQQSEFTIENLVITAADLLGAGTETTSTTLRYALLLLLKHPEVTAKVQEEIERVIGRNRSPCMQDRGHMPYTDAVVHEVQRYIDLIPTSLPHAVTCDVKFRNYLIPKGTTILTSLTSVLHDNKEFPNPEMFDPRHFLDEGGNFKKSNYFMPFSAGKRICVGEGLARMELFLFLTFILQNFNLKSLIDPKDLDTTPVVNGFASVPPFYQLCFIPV
Chain of Cytochrome P450 2D6 (P10635 whole entry): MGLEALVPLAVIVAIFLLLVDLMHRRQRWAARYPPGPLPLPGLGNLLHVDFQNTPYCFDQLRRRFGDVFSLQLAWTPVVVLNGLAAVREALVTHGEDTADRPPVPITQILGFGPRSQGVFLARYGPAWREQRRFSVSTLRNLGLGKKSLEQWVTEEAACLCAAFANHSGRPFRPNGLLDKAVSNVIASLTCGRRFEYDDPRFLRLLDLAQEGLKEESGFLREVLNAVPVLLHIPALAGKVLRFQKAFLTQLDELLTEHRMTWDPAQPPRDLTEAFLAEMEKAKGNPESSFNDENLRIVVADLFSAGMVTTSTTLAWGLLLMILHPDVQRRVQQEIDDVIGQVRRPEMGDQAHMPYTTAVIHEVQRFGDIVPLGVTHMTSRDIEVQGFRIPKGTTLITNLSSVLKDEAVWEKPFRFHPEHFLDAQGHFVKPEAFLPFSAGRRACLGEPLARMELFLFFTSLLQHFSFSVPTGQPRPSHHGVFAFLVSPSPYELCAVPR

CC[C@H](c1ccc(O)cc1)[C@@H](CC)c1ccc(O)cc1 [HEXESTROL]
AC50 (Cytochrome P450 2C19): 3.16 µM (inconclusive) | IC50 [1]: 6.88 µM (inactive) | IC50 [2]: > 40 µM (inactive) | AC50 (Cytochrome P450 2D6): 15.8 µM (inconclusive) | AC50 (Cytochrome P450 1A2): 12.6 µM (inconclusive)

C[C@H]1CCCCO[C@H](CN(C)S(=O)(=O)c2ccc(Cl)cc2)[C@@H](C)CN([C@@H](C)CO)C(=O)c2cc(NS(=O)(=O)c3cccs3)ccc2O1
AC50 (HEK293): 15.6 µM (active) | AC50 [3]: 15.6 µM (active)

COc1ccc(CN(CCN(C)C)c2ccccn2)cc1 [PYRILAMINE]
IC50 [4]: 15.4 µM (inactive)

COc1ccc(S(=O)(=O)N2CCOCC2)cc1NC(=O)c1cccc2c(=O)c(C)c(-c3ccccc3)oc12
IC50 (H9c2): > 79 µM (inactive) | AC50 [5]: > 30 µM (inactive)

COc1ccccc1C#Cc1ccc([C@H]2[C@@H](CO)N(C(=O)C3CC3)[C@H]2C#N)cc1
AC50 [6]: 2.22 µM (active) | AC50 [7]: > 100 µM (inactive) | AC50 [8]: 0.457 µM (active) | AC50 [9]: 2.28 µM (active) | AC50 [10]: 1.09 µM (active)

Cc1ccc(NS(=O)(=O)c2ccc(Cl)c(NC(=S)NC(=O)C3CCCCC3)c2)cc1Cl
EC50 [11]: 0.756 µM (active) | EC50 (Streptokinase A): 2.48 µM (active) | EC50 [12]: 19.8 µM (active) | EC50 [13]: 20.8 µM (active) | EC50 (Streptococcus): 4.65 µM (active) | AC50 [14]: 3.05 µM (active) | AC50 (INS1): 10.2 µM (active) | IC50 [15]: > 69.5 µM (inactive)

N#C[C@@H]1[C@H](c2ccc(-c3cccc(F)c3)cc2)[C@@H](CO)N1C(=O)NC1CCCC1
AC50 [6]: 13 µM (active) | AC50 [7]: > 100 µM (inactive) | AC50 [16]: 0.483 µM (active) | AC50 [8]: 0.117 µM (active) | AC50 [9]: 0.326 µM (active) | AC50 [10]: 0.239 µM (active)

O=C(Nc1ccc(F)cc1)N1C[C@H]2[C@@H](c3ccccc31)[C@H](CO)N2C(=O)c1ccccc1F
AC50 [16]: 4.75 µM (active) | AC50 [17]: > 39 µM (inactive)

Source: ChEMBL document CHEMBL1201862, “PubChem BioAssay data set” (2004)
